Test results reported in PubChem BioAssay (NCI).
Several values for one entry are separate records, joined by “and”; a condition that tells them apart may be missing. Equal values may be shown once.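 Interpolation was linear, between the two tested concentrations surrounding the appropriate level; five concentrations were tested over 48 hours in 96-well plates. At the GI50, growth is halved. TGI marks complete inhibition of growth.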

Key:
Assay in all cases: NCI-60 cell line screen, 48 h
HL-60(TB) leukemia = tested on: HL-60(TB) leukemia
HCC-2998 colon = tested on: HCC-2998 colon
SNB-75 CNS = tested on: SNB-75 CNS
NCI-H460 lung = tested on: NCI-H460 lung
SF-268 CNS = tested on: SF-268 CNS
SW-620 colon = tested on: SW-620 colon
TK-10 renal = tested on: TK-10 renal
SK-MEL-28 melanoma = tested on: SK-MEL-28 melanoma
SF-539 CNS = tested on: SF-539 CNS
LOX IMVI melanoma = tested on: LOX IMVI melanoma

SMILES | TGI (HL-60(TB) leukemia) [µM] | TGI (HCC-2998 colon) [µM] | TGI (SNB-75 CNS) [µM] | TGI (NCI-H460 lung) [µM] | TGI (SF-268 CNS) | GI50 (SW-620 colon) [µM] | TGI (SW-620 colon) | TGI (TK-10 renal) [µM] | GI50 (SK-MEL-28 melanoma) [µM] | TGI (SK-MEL-28 melanoma) [µM] | GI50 (SF-539 CNS) [µM] | TGI (SF-539 CNS) [µM] | GI50 (LOX IMVI melanoma) [µM] | TGI (LOX IMVI melanoma) | GI50 (HL-60(TB) leukemia) [µM] | GI50 (HCC-2998 colon) [µM] | GI50 (SNB-75 CNS) [µM] | GI50 (NCI-H460 lung) [µM] | GI50 (SF-268 CNS) [µM] | GI50 (TK-10 renal) [µM]
C=C(Cl)C(Br)(CCl)CCC(Br)C(C)(C)Cl (centres undefined) | 5.19 | 30.5 | 11 | 20.7 | 8.32 µM and 8.82 µM | 1.46 | 4.54 µM and 3.23 µM | 24.6 | 5.88 | 14.2 | 1.98 | 3.86 | 1.76 | 3.73 µM and 4.22 µM | – | – | – | – | – | –
COc1ccc(-c2nn(-c3ccc(NC(=O)c4ccc(Cl)c(Cl)c4)cc3)cc2-c2ccncc2)cc1Cl | > 50 | > 50 | > 50 | > 50 | > 50 µM | 2.67 | > 50 µM | > 50 | > 50 | > 50 | 1.55 | > 19 | 0.951 | 2.17 µM | 2.76 | 1.85 | 1.26 | 2.02 | 4.25 | > 11.1
COc1c(OC[C@H](O)CN2CCOCC2)ccc2c3n(c(=NC(=O)c4cccnc4C)nc12)CCN3 | > 50 | > 50 | 1.18 | > 50 | > 50 µM | 49.4 | > 50 µM | > 50 | 0.465 | > 50 | 0.543 | 9.91 | 1.57 | > 50 µM | 0.0538 | 1.9 | 0.02 | 0.528 | 12.4 | 0.0941
Cc1ccc(NC(=O)CCc2cc(C(C)(C)C)nc(=S)[nH]2)cc1C | > 100 | > 100 | > 100 | > 100 | > 100 µM | – | > 100 µM | > 100 | – | > 100 | – | > 100 | – | > 100 µM | – | – | – | – | – | –
Cc1ccc(/C=C/C(=O)c2sc(-c3nc(C)c(C(=O)/C=C/c4ccc(C)cc4)s3)nc2C)cc1 | > 100 | > 100 | > 100 | > 100 | > 100 µM | – | > 100 µM | > 100 | – | > 100 | – | > 100 | – | > 100 µM | – | – | – | – | – | –
Cc1ccc(NC(=O)CC2CC2)cc1-c1ccc(C(=O)NCC2CC2)cc1 | > 25 | > 25 | > 25 | > 25 | > 25 µM | > 25 | > 25 µM | > 25 | > 25 | > 25 | > 25 | > 25 | > 25 | > 25 µM | > 24.2 | > 25 | > 25 | > 25 | > 25 | > 25
Cc1cc(Cl)ccc1NC(=O)C(=O)Cc1nc2ccccc2o1 | > 100 | > 100 | > 100 | > 100 | > 100 µM | – | > 100 µM | > 100 | – | > 100 | – | > 100 | – | > 100 µM | – | – | – | – | – | –
CC[C@H]1[C@@H]2C=C[C@@H]3[C@H]4C/C=C\C(=O)NCCC[C@@H]5NC(=O)/C(=C(O)/C=C/[C@@H]4C[C@@H]3[C@H]2C[C@H]1C)C5=O | 3.99 | 3.62 | 1.58 | 1.84 | 1.86 µM | 2.46 | 7.59 µM | 2.71 | 1.89 | 4.06 | 1.3 | 2.72 | 0.662 | 1.96 µM | 1.92 | 1.8 | 0.415 | 0.409 | 0.448 | 1.35
